In patent US20090028839A1, “Compositions and methods for the prophylaxis and treatment of vaginal infections” (priority 2004, published 2009):

Legend:
Format in all cases: cell-based
[1] = test system: clinical isolates of G. vaginalis; experiment: Antibiotic resistance of clinical isolates
From the text: The ability of G. vaginalis to induce HIV expression in vitro was investigated in chronically infected U1 cells by measuring HIV p24 antigen concentration. […] Moreover, we have also determined that clinical isolates of G. vaginalis are often resistant to metronidazol (73%), and clindamycin (38%), two drugs of choice for treatment of BV. […] Thus, the major BV-associated pathogens are able to increase sensitivity of human cells to HIV.

Group B Streptococci = experiment: Agar-well inhibition zones of Lactobacillus culture supernatants; conditions: 400 μl culture supernatant in agar well
Protocol: (§1) To test for their antimicrobial activity, all Lactobacillus isolates were grown anaerobically (to eliminate H2O2 production) in an MRS broth for 24 hours. The supernatants were collected and filter sterilized. Agar plates (Human Blood Tween agar for G.vaginalis, and Tryptic Soy agar with 5% sheep blood for other organisms) were inoculated with tested bacteria and 400 μl of each supernatant was added into the wells punched in the agar plates. The antimicrobial activity was determined by the size of the inhibition zones, similar to the disk method used for the determination of antibiotic activity. From our collection of clinical lactobacilli strains, we selected the strain identified as L. rhamnosus 160 since its extracellular product was characterized as having the highest antimicrobial activity, as shown in Table 1.

E. coli = experiment: as above; conditions: 400 μl culture supernatant in agar well
Protocol: as §1

Staphylococcus sp. = experiment: as above; conditions: 400 μl culture supernatant in agar well
Protocol: as §1

G. vaginalis ATCC 14018 = experiment: as above; conditions: 400 μl culture supernatant in agar well
Protocol: as §1

Compound	Share of clinical isolates of G. vaginalis resistant [1]	Zone of inhibition (Group B Streptococci)	Zone of inhibition (E. coli)	Zone of inhibition (Staphylococcus sp.)	Zone of inhibition (G. vaginalis ATCC 14018)
CCC[C@@H]1C[C@@H](C(=O)N[C@@H]([C@H]2O[C@H](SC)[C@H](O)[C@@H](O)[C@H]2O)[C@H](C)Cl)N(C)C1 [clindamycin]	38%	–	–	–	–
Cc1ncc([N+](=O)[O-])n1CCO [metronidazol]	73%	–	–	–	–
CC(O)C(=O)O (stereo not drawn) [Lactic acid]	–	1.5 mm	1.5 mm	1.5 mm	1.5 mm
